According to patent US8822182B2, “Chimeric antigen-specific T cell-activating polypeptides” (Mayo Foundation for Medical Education and Research, priority 2001, dated 2014):
Where two headings read alike, the source gives them in different places.

Key:
[1] = test system: TAP deficient RMA-S targets; format: cell-based, mouse; conditions: ConA-activated CTL, 10 μM overnight; for sensitization of targets for killing by OVA257-specific CTL: FIG. 9 left panel; for sensitization of targets for killing by 2C-specific CTL: FIG. 9 middle panel
[2] = test system: TAP-deficient RMA-S target cells; format: cell-based, mouse; conditions: peptide epitope-activated CTL; for sensitization of targets for lysis by LCMV-specific CTL: FIG. 10C (right panel)
[3] = test system: TAP-deficient T2 target cells; format: cell-based, human
[4] = test system: TAP-expressing 221.A2 target cells; assay: 51Cr release cytotoxicity assay, human CEA-specific CTL line, 221.A2 targets; format: cell-based; conditions: TAP-competent targets, incubated overnight with peptide, FIG. 1A
[5] = test system: TAP-deficient T2 target cells; assay: 51Cr release cytotoxicity assay, human CEA-specific CTL line, T2 targets; format: cell-based; conditions: for effect of brefeldin-A (BFA) on sensitization of T2 cells: BFA 1 μg/ml, CEA-specific CTL, E:T 20:1, FIG. 4; for ability to sensitize target cells for CTL lysis: TAP-deficient targets, incubated overnight with peptide, FIG. 1B; for sensitizing activity after pre-incubation with trypsin: trypsin at 37° C., E:T 20:1, FIG. 2B; for capacity to sensitize targets for CTL lysis: 10 μM overnight, E:T 20:1, FIG. 2C
[6] = test system: TAP-competent cells expressing H-2K^b (L-K^b); assay: Immunofluorescence and confocal microscopy of H-2K^b/OVA257 complexes, TAP-competent cells; format: cell-based, mouse
Experimental: (§1) T2/K^b or L-K^b cells were cultured overnight on poly-lysine treated glass coverslips. The culture medium was discarded, and the cells were gently washed with PBS. The cells were pre-incubated with serum-free AIM-V medium at 37° C. for 30 minutes and then incubated with peptide/TA solutions at the indicated concentrations for 12 hour at 37° C. After peptide loading, the cells were washed and fixed with 2% formaldehyde for 20 minutes at room temperature. For indirect immunofluorescence, fixed cell monolayers were permeabilized with 0.2% Triton X100 in PBS and incubated with PBS containing 5% goat serum to block non-specific protein binding sites. The cells were double-labeled with mouse monoclonal antibody 25D1.16 specific to OVA257/H-2K^b complex and rabbit polyclonal antibody TGN38 (TGN marker) or rabbit anti-calreticulin (ER marker), followed by 1 hour staining with FITC anti-mIgG and TR anti-rIgG as secondary antibodies. After washing, the coverslips were mounted for observation on glass slides using the Prolong Antifade Kit. The stained cells were examined and photographed with a Leica TCS-SL confocal laser-scanning microscope (Bensheim, Germany).
Utilizing the monoclonal antibody 25D1.16 that specifically reacts with H-2K^b/OVA257 complexes and confocal microscopy, the formation and presence of this CTL epitope in permeabilized TAP-competent and TAP-deficient cells expressing H-2K^b was evaluated. […] These cells were also stained with an antibody specific for calreticulin which is localized within the ER.

[7] = test system: TAP-competent EL-4 cells; assay: Flow cytometry of surface H-2K^b/OVA257 complexes (25D1.16) with protease inhibitors, EL-4 cells; format: cell-based, mouse; conditions: antigen 10 μM overnight; for effect of furin inhibitor decRVKR-CMK on expression of surface H-2K^b/OVA257 complexes (decrease): decRVKR-CMK 60 μM, FIGS. 8A-8C; for effect of lactacystin on amount of surface H-2K^b/OVA257 complexes: lactacystin 10 μM, FIGS. 6A and 6B; for effect of pepstatin-A on amounts of surface peptide/MHC class I complexes (increase): pepstatin 100 μM, FIGS. 7A and 7B
Experimental: (§2) The effects of protease inhibitors on antigen processing and presentation were evaluated by analysis of 25D1.16 staining on different antigen-pulsed EL-4 or T2/K^b cells using flow cytometric analysis. In brief, EL-4 or T2/K^b cells were washed twice with serum-free AIM-V medium (Life Technologies, Rockville, Md.), pre-treated with protease inhibitors (10 μM lactacycstin, 100 μM pepstatin or 60 μM decRVKR-CMK) for 30 minutes and then pulsed with equimolar concentrations of different (as indicated) peptides at 37° C. overnight with the continuous presence of the corresponding protease inhibitors. The serum-free AIM-V medium was used in order to exclude the potential involvement of serum proteases during the peptide-pulsing process. After washing the cells twice with FACS buffer (PBS (phosphate buffered saline) supplemented with 2% FBS and 0.2% sodium azide), peptide-loaded APC were stained with 25D1.16 antibody followed by FITC anti-mIgG for flow analysis. Untreated EL-4 and T2/K^b cells were pulsed with peptides and stained as controls.

[8] = test system: TAP-deficient T2/K^b cells; assay: Flow cytometry of surface H-2K^b/OVA257 complexes (25D1.16) with protease inhibitors, T2/K^b cells; format: cell-based, human; conditions: antigen 10 μM overnight; for effect of furin inhibitor decRVKR-CMK on expression of surface H-2K^b/OVA257 complexes (decrease): decRVKR-CMK 60 μM, FIGS. 8D-8F; for effect of lactacystin on level of surface H-2K^b/OVA257 complexes (increase): lactacystin 10 μM, FIGS. 6C and 6D; for effect of pepstatin-A on amounts of surface peptide/MHC class I complexes (increase): pepstatin 100 μM, FIGS. 7C and 7D
Experimental: as §2
The data described above indicate that TA can be processed in various cellular compartments to produce small peptide epitopes that subsequently associate with MHC class I molecules and the resulting peptide-MHC class I complexes are then transported to the cell surface. Antigen processing could take place: (1) in the cytoplasm, via proteasomal degradation followed by TAP transport; (2) within the ER, where peptide trimming via an aminopeptidase could occur; (3) in the trans-Golgi, where processing of antigens through proteases such as furin can occur; and/or (4) in early endocytic compartments, where peptides that could either bind to recycling MHC class I molecules or leak into other compartments of the MHC class I pathway can be generated. Utilizing antibody 25D1.16, we studied the effects of various inhibitors of antigen processing in the formation of H-2K^b/OVA257 surface complexes by peptides OVA257-HIVtat and HIVtat-OVA257.

[9] = test system: Murine dendritic cells (DC); assay: Persistence in dendritic cells: IFN-γ ELISA of OT-1 CTL cultured with pulsed DC; format: cell-based, mouse; conditions: DC pulsed 10 μM 2 hours, washed, further 48 hours, CTL:DC 10:1 for 24 hours, FIG. 14
Experimental: Murine dendritic cells (DC) were prepared by culturing C57BL6 mouse (H-2^b) bone marrow […] in the presence of granulocyte macrophage colony stimulating factor (GM-CSF) and interleukin-4 (IL-4) by a method essentially the same as that described by Son et al. [(2002) J. Immunol. Meth. 262:145-157] except that non-adherent cells are removed from the cultures and discarded on day 2 of culture and no density gradient centrifugation step was used. Cells not adhering to the plastic tissue culture vessel at day 6 of culture were harvested and used as DC.
DC were pulsed with either the TA HIVtat-OVA257 (see Table 2) or the peptide epitope OVA257, each at a concentration of 10 μM, for 2 hours at 37° C. The cells were then washed free of the TA or peptide epitope and incubated for a further 48 hours. They were then cultured with cells of the OT-1 CTL clone (specific for H-2K^b/OVA257) at a CTL to DC ratio of 10:1 for 24 hours. Supernatants were then removed from the cultures and the relative amounts of IFN-γ in various dilutions of each supernatant were measured by ELISA (FIG. 14). […] These findings indicate that a peptide epitope persists in DC for a longer period of time when taken up by DC in the form of a TA than when taken up by DC in the form of the peptide epitope per se.

[10] = test system: C57BL/6 mice; format: in vivo, mouse; conditions: 50 μg in IFA; spleen and lymph node cells cultured with IL-2 for 7 days, FIG. 12
[11] = test system: TAP-expressing 221.A2 target cells; format: cell-based, human
[12] = test system: TAP-deficient cells (T2/K^b); assay: Immunofluorescence and confocal microscopy of H-2K^b/OVA257 complexes, T2/K^b cells; format: cell-based, human
Experimental: as §1
An antibody specific for trans-Golgi network (TGN38) was used to test whether H-2K^b/OVA257 complexes could also be detected in the trans-Golgi network of cells incubated with TA peptides. […] In these cells, antibody TGN38 stained brightly a structure corresponding to the trans-Golgi. […] These observations reinforce the findings that TA peptides need to penetrate cells in order to create MHC class I/peptide complexes. In addition, these complexes are observed in both the ER and trans-Golgi, even in TAP-deficient cells.

IKAVYNFATCG [LCMV, reference compound]
sensitization of targets for lysis by LCMV-specific CTL ([1]; FIG. 9 right panel): only the short minimal epitope was effective
sensitization of targets for lysis by LCMV-specific CTL [2]: relatively high amount of the peptide epitope required to sensitize

IKAVYNFATCGVRVVSIYRYYGLVRVVSIINFEKLAAARKKRRQRRR [TA3-C]
sensitization of targets for killing by OVA257-specific CTL [1]: much less effective
sensitization of targets for killing by 2C-specific CTL [1]: much less effective
effectiveness in sensitizing RMA-S targets relative to TA3-A (less effective) ([2]; E:T 10:1, FIG. 10): at least 100 fold
sensitization of targets for lysis by CTL specific for all three peptide epitopes (OVA257, 2C, LCMV) ([2]; E:T 10:1, FIG. 10): also sensitized the RMA-S targets for lysis

IMDQVPSFV [gp100209, reference compound]
effect of brefeldin-A (BFA) on sensitization of T2 cells [3]: did not block

IMIGVLVGV (epitope) [CEA691, reference compound]
ability to sensitize target cells for CTL lysis [4]: similar, if not identical, activities
effect of brefeldin-A (BFA) on sensitization of T2 cells [5]: did not block
ability to sensitize target cells for CTL lysis [5]: similar, if not identical, activities
effect of competitor peptide HBc18-27 on sensitization of target cells for CTL lysis ([5]; antigen 1 μM, 30 minutes, E:T 20:1, FIG. 2A): efficient at inhibiting the sensitization of target cells for CTL lysis by peptide CEA691
sensitizing activity after pre-incubation with trypsin ([5]; antigen 1 μM): did not modify this peptide's sensitizing activity

IMIGVLVGVAAARKKRRQRRR [CEA691-HIVtat]
ability to sensitize target cells for CTL lysis [4]: similar, if not identical, activities
ability to sensitize target cells for CTL lysis [5]: similar, if not identical, activities
sensitizing activity after pre-incubation with trypsin ([5]; antigen 1 μM): lost most of its activity

IMIGVLVGVKKK [CEA691-KKK]
capacity to sensitize targets for CTL lysis [5]: none of peptides CEA691-KKK, CEA691-RRR or CEA691-RKK were able to sensitize

IMIGVLVGVRKK [CEA691-RKK]
capacity to sensitize targets for CTL lysis [5]: none of peptides CEA691-KKK, CEA691-RRR or CEA691-RKK were able to sensitize

IMIGVLVGVRRR [CEA691-RRR]
capacity to sensitize targets for CTL lysis [5]: none of peptides CEA691-KKK, CEA691-RRR or CEA691-RKK were able to sensitize

RKKRRQRRRAAAIMIGVLVGV [HIVtat-CEA691]
effect of brefeldin-A (BFA) on sensitization of T2 cells [5]: effective in blocking

RKKRRQRRRAAASIINFEKL [HIVtat-OVA257]
presence of H-2K^b/OVA257 complexes in permeabilized cells ([6]; 25D1.16 staining): abundant
H-2K^b/OVA257 complexes within the ER ([6]; 25D1.16 superimposed with calreticulin staining): abundant H-2K^b/OVA257 complexes were present within the ER
effect of furin inhibitor decRVKR-CMK on expression of surface H-2K^b/OVA257 complexes (decrease) [7]: no effect was observed
effect of lactacystin on amount of surface H-2K^b/OVA257 complexes [7]: did not have an effect
effect of pepstatin-A on amounts of surface peptide/MHC class I complexes (increase) [7]: did not have an appreciable effect
effect of furin inhibitor decRVKR-CMK on expression of surface H-2K^b/OVA257 complexes (decrease) [8]: no effect was observed
effect of lactacystin on level of surface H-2K^b/OVA257 complexes (increase) [8]: did not have an appreciable effect
effect of pepstatin-A on amounts of surface peptide/MHC class I complexes (increase) [8]: did not have an appreciable effect
IFN-γ produced by OT-1 CTL cultured with pulsed DC [9]: a high level of IFN-γ was produced

RKKRRQRRRAAASVYDEFFVWLKVKRLPYLGWLVFKVKRSGPSNTPPEI [TA5]
peptide epitope-specific cytotoxic activity of effector cells from immunized mice (E1A, P1A, TRP-2 pulsed versus unpulsed RMA-S targets) [10]: significant peptide epitope-specific cytotoxic activity was detected

RKKRRQRRRAAASVYDEFFVWLVRVVLPYLGWLVFVRVVSGPSNTPPEI [TAG]
peptide epitope-specific cytotoxic activity of effector cells from immunized mice (E1A, P1A, TRP-2 pulsed versus unpulsed RMA-S targets) [10]: no significant cytotoxic activity

RKKRRQRRRIKAVYNFATCGRVKRSIINFEKLRVKRSIYRYYGL [TA3-D]
sensitization of targets for lysis by LCMV-specific CTL [2]: less effective
sensitization of targets for lysis by OVA257-specific CTL ([2]; FIG. 10 left panel): as effective as the others
sensitization of targets for lysis by 2C-specific CTL ([2]; FIG. 10 middle panel): as effective as the others

RQIKIWFPNRRMKWKKAEIDLIMDQVPFSVLRTED [AntpHD-gp100209]
sensitization of targets for lysis by gp100209-specific CTL clone [11]: efficiently sensitized
effect of brefeldin-A (BFA) on sensitization of T2 cells [3]: effective in blocking
sensitization of targets for lysis by gp100209-specific CTL clone [3]: efficiently sensitized

SIINFEKLAAARKKRRQRRR [OVA257-HIVtat]
amount of intracellular H-2K^b/OVA257 complexes ([12]; 25D1.16 staining): High amounts of intracellular H-2K^b/OVA257 complexes
localization of H-2K^b/OVA257 complexes to the trans-Golgi ([12]; 25D1.16 superimposed with TGN38 staining): majority of the H-2K^b/OVA257 complexes localized within the trans-Golgi
effect of furin inhibitor decRVKR-CMK on expression of surface H-2K^b/OVA257 complexes (decrease) [7]: about 10 fold
effect of lactacystin on amount of surface H-2K^b/OVA257 complexes [7]: did not have an effect
effect of pepstatin-A on amounts of surface peptide/MHC class I complexes (increase) [7]: 3-5 fold
effect of furin inhibitor decRVKR-CMK on expression of surface H-2K^b/OVA257 complexes (decrease) [8]: about 10 fold
effect of lactacystin on level of surface H-2K^b/OVA257 complexes (increase) [8]: about 3 fold
effect of pepstatin-A on amounts of surface peptide/MHC class I complexes (increase) [8]: 3-5 fold

SIINFEKLRVKRIKAVYNFATCGRVKRSIYRYYGLAAARKKRRQRRR [TA3-B]
sensitization of targets for killing by OVA257-specific CTL [1]: could effectively kill targets sensitized
sensitization of targets for killing by 2C-specific CTL [1]: could effectively kill targets sensitized
